{"source": "patent US11426381B2", "about": "“Lipoic acid choline ester compositions and methods of use” (NOVARTIS AG, priority 2014, dated 2022)", "key": {"mouse lenses (C57BL/6J)": {"test_system": "mouse lenses (C57BL/6J)", "test": "In vitro mouse lens elasticity (coverslip method)", "details": "eight month old mouse lenses, 12 hours incubation", "description": "(§1) In vitro test: Eight month old mouse lenses (C57BL/6J) were incubated for 12 hours in medium supplemented with selected levels (0-500 μM) of lipoic acid (LA). Lens elasticity was measured using the coverslip method known. After elasticity measurements, lenses were homogenized in a dissociation medium containing alkylating agent 1 (free SH modification). The homogenate was filtered and the rinsed, resuspended, retentate was treated with reducing agent (TCEP) and alkylating agent 2 (S-S SHs modified). After filtration and rinses, the levels of alkylated SH groups in retentate 2 was determined. Bovine serum albumin was the positive control for the sulfhydryl analysis."}, "lens protein disulfides": {"test_system": "lens protein disulfides", "test": "In vitro mouse lens protein disulfide analysis", "details": "eight month old mouse lenses, 12 hours incubation", "description": "as §1"}, "[1]": {"test": "Stability of LACE chloride in propylene glycol (HPLC potency)", "assay_type": "physicochemical", "details": "1.0% in propylene glycol", "description": "The HPLC method to analyze LACE Chloride used a Phenomenex Luna CN column with a 5 um particle size, 100 A pore size, 2.0 mm inner diameter, and 50 mm length (PN: 00B-4255-B0). The mobile phase consisted of 50% of 0.1 M Sodium Acetate and 50% Acetonitrile. The flow rate was 1.0 mL/min, the detection wavelength was 225 nm, the column temperature was 40° C., the injection volume was 20 uL, and the run time was 50 minutes. The working LACE chloride concentration was 0.1 mg/mL and plastic HPLC vials were used for the analysis.\nA solution of LACE chloride in propylene glycol was prepared to determine its stability. A solution of 1.0% LACE chloride in propylene glycol was prepared and stored at −20° C. (ambient RH), 5° C. (ambient RH), and 25° C. (40% RH). The solutions were tested for LACE chloride potency after storage for 3 months.\nIn these samples, HPLC analysis (using the method described in Example 2) a peak with relative retention time (RRT) of approximately 0.73. […] No additional peaks are detected. The peak at 0.73 RRT is not detected in the LACE chloride solutions in citrate buffer."}, "[2]": {"test_system": "New Zealand white rabbits", "test": "Draize test for eye drop ocular safety", "assay_type": "in vivo, rabbit", "details": "EV06 3%-5%", "description": "Safety of the EV06 was evaluated by the Draize test to evaluate its use at concentrations as high as 5%. The Draize Test is an acute toxicity test devised in 1944 by Food and Drug Administration (FDA) toxicologists John H. Draize and Jacob M. Spines. Initially used for testing cosmetics, the procedure involves applying 0.5 mL or 0.5 g of a test substance to the eye or skin of a restrained, conscious animal, and then leaving it for set amount of time before rinsing it out and recording its effects. Corneal, iris, and conjunctival responses were evaluated using the scale described by Draize et al., J. Pharmacol. & Exp. Therapeutics, 82:377-390 (1944)]. Because of the importance of the cornea to vision, 73% of the Draize score is based on corneal damage. A normal score was 0, increasing amounts of damage result in a higher score, with the maximum score possible being 110. A Draize score was computed at each observation time by averaging the total scores of all rabbits tested. Observations were made and recorded 24, 48, and 72 hours after treatment.\nThis test consists of instilling 30 to 50 μL of the product into one eye of 6 New Zealand white rabbits and monitoring to observe any abnormal clinical signs such as redness of conjunctiva, swelling, or increased blinking which may indicate irritation."}, "[3]": {"test": "Toxicokinetics (plasma levels) in GLP rabbit study", "assay_type": "in vivo", "details": "rabbits; topical DIOPTIN three times daily", "description": "Screening studies were conducted to determine the highest tolerated concentration when applied topically to rabbit eyes, in conjunction with bioanalysis of corneal, aqueous humor, and lens concentrations of EV06 and its metabolites. In a GLP rabbit study, animals were treated with topical 0, 1, 3 or 4% DIOPTIN™ (lipoic acid choline ester) solution three times daily for 90 consecutive days. Slit-lamp exams and fundoscopy were performed at pre-dose baseline and after 1, 30, and 90 days of dosing. Daily clinical observations, food consumption, body weights, clinical pathology, and toxicokinetics were performed. Full necropsy and ocular histopathology were also conducted."}, "[4]": {"test": "Corneal penetration and ocular pharmacokinetics in rabbits (HPLC-ESI/MS/MS)", "assay_type": "in vivo, rabbit", "description": "Esters of lipoic acid were evaluated in rabbits for corneal penetration. Rabbits were also used to examine the metabolism, absorption, and distribution of LACE (LA prodrug) using HPLC-ESI/MS/MS (LOD>2 ng/ml)."}, "[5]": {"test": "Stability of LACE in neat glycerol", "assay_type": "physicochemical", "details": "mixed in neat glycerol, 80° C. for 8 hours", "description": "Lipoic acid choline ester was mixed in neat glycerol (no water) with brief heating to 80° C. for 8 hours. High concentrations of lipoic acid choline ester in a final clear solution were found. The final clear solution is stable."}}, "data": [{"smiles": "O=C(O)CCCCC1CCSS1", "note": "(centres unmarked) [LA, lipoic acid]", "values": [{"measurement": "concentration of maximal effect on lens elasticity", "setting": "mouse lenses (C57BL/6J)", "value": 100, "unit": "µM"}, {"measurement": "EC50", "setting": "mouse lenses (C57BL/6J); 0-500 μM LA, read-out: [LA]50 for increase in lens elasticity", "value": "50 ± 10", "unit": "µM"}, {"measurement": "concentration of maximal effect on lens protein disulfides", "setting": "lens protein disulfides", "value": 100, "unit": "µM"}, {"measurement": "EC50", "setting": "lens protein disulfides; 0-500 μM LA, read-out: [LA]50 for decrease in lens protein disulfides", "value": "50 ± 10", "unit": "µM"}]}, {"smiles": "C[N+](C)(C)CCOC(=O)CCCC[C@@H]1CCSS1.[Cl-]", "note": "[LACE chloride, lipoic acid choline ester chloride]", "values": [{"measurement": "stability of LACE chloride in propylene glycol", "setting": "[1]; 3 months storage at 5° C. and 25° C.", "value": "not stable"}, {"measurement": "conversion to peak at RRT approximately 0.73", "setting": "[1]; stored at room temperature, 3 months", "value": "completely converted"}]}, {"smiles": "C[N+](C)(C)CCOC(=O)CCCC[C@@H]1CCSS1", "note": "[LACE, lipoic acid choline ester]", "values": [{"measurement": "Draize Rabbit Eye test score", "setting": "[2]; 30 to 50 μL into one eye, scale 0 to 110", "value": "2.0+/−0.6"}, {"measurement": "Draize test classification", "setting": "[2]; New Zealand white rabbits", "value": "not corrosive or irritating"}, {"measurement": "Plasma levels of EV06", "setting": "[3]", "value": "at or below the limits of detection"}, {"measurement": "corneal penetration compared with lipoic acid", "setting": "[4]", "value": "improve penetration over lipoic acid"}, {"measurement": "stability of clear solution in neat glycerol", "setting": "[5]", "value": "stable"}]}]}
